This note sets out measurements from patent US6376679B2, “Photoprotective/cosmetic compositions comprising novel benz-x-azole-substituted silane/siloxane sunscreens” (Societe L'Oreal S.A., priority 1997, dated 2002).

This data set in a line: UV absorption (ethanol). Type of data set: physicochemical. As to conditions: UV spectrum in ethanol; for εmax: at the λmax of the same cell.

“And” between values parts separate entries of the source, which are not always exact repeats. Equal entries are not always repeated.

For `C=C(C)Cc1cc(OC)cc(-c2nc3ccccc3[nH]2)c1O` [2-(1H-benzimidazol-2-yl)-4-methoxy-6-(2-methyl-allyl)-phenol], the λmax is 302 nm and 343 nm; the εmax is 18,500 and 16,200.

In the case of `C=C(C)Cc1cc(C)cc(-c2nc3ccccc3o2)c1O` [2-benzoxazol-2-yl-4-methyl-6-(2-methyl-allyl)-phenol], the λmax was 299 nm and 333 nm; the εmax was 20,130 and 14,180.

Regarding `C[Si](C)(C)CCCOc1ccc(-c2nc3ccccc3[nH]2)c(O)c1` [Example 3], the λmax is 333 nm and 318 nm; the εmax is 22,200 and 24,250.
